Data as given in patent US20250177290A1, “DRUG-ELUTING SURGICAL ARTICLES AND METHODS OF USE THEREOF” (BIOSAPIEN INC., priority 2022, published 2025).

System: CT26 colorectal carcinoma murine model
Details: mouse, in vivo
Description: Efficacy was tested in murine model (BSPN02). CT26 colorectal cell lines in a murine model were chosen to conduct toxicity and safety studies in-vivo. The safety profile of Biomaterial-5-FU was compared with other control groups, and five aspects were evaluated as follows: (i) change in the body weight over time, (ii) organ weight and the ratio of organ to body weight, (iii) Hematoxylin-Eosin (H & E) staining for histological changes, (iv) a hepatic function panel, and (v) blood chemistry to assess impact on bone marrow. For H & E staining, five major organs (liver, heart, spleen, lungs, and kidneys) were collected from the mice at each time point. […] This toxic effect was not observed in mice treated with Biomaterial-5-FU. […] This toxic effect was not observed in mice treated with Biomaterial-5-FU.

SMILES: O=c1[nH]cc(F)c(=O)[nH]1 [IV 5-FU, 5-fluoro-1H-pyrimidine-2,4-dione]
- toxic effect: absolute numbers of white blood cells: reduction in the absolute numbers of white blood cells
- toxic effect: number of monocytes and other leukocytes (bone marrow suppression): reduction in the number of monocytes and other leukocytes
